Assay results reported in US8178704B2, “Inositol-phosphate derivatives and method of detecting inositol-1-phosphate” (CIS Bio International, priority 2004, dated 2012).
“Also recorded” adds a separate entry of the source.

Experiments:
anti-IP1 antibodies = test: Specificity of the anti-IP1 antibodies evaluated by competition ELISA; format: binding, mouse; conditions: competition with plate-bound IP1-biotin; competitors 1 nM to 100 μM (myo-inositol 10 nM to 1 mM)
Experimental: NUNC 96-well microtiter plates coated with streptavidin (13 pmol/well) are used. 100 μl of IP1-biotin conjugate prepared according to Example 9 at a concentration of 0.25 μg/ml are distributed and the mixture is incubated for 2 h 30 min at room temperature with stirring. The mixture is washed three times with water containing 0.1% Tween20. 50 μl of solutions of competitors are added so as to prepare the following final concentration ranges: myo-inositol (10 nM at 1 mM), IP1 Sigma (1 nM to 100 μM), IP2 (1 nM to 100 μM), IP3 (1 nM to 100 μM), PiP2 (1 nM to 100 μM) as well as 50 μl of culture supernatants secreting anti-IP1 antibodies. The mixture is incubated for 16 h at 4° C. and then washed three times with water containing 0.1% Tween20. 100 μl of conjugate anti-IgG (mouse)-peroxidase (Sigma # A 0168) diluted 1/60 000 in PBS 0.3% BSA are added. The mixture is incubated for 1 h at room temperature with stirring and then three washes are performed with 10 PBS 0.1% Tween20. 100 μl of TMB substrate (Sigma # T 8665) are distributed and the mixture is incubated for 30 min at room temperature with stirring and then 100 μl of stop reagent (Sigma # S5814) are distributed and the optical densities are measured at 450 nm.
The optical density at 450 nm is plotted against the logarithm of the concentration of compound whose competition it is desired to test. For all the compounds tested in competition, the maximum optical density OD450˜1.5 is observed at the lowest concentrations (1 nM).

mGlu1 receptor = biological target: T1, mGlu1 receptor (Homo sapiens, UniProt Q13255); test: IP1 assay (TR-FRET) on HEK-293 cells transiently expressing the mGlu1 receptor, effect of a positive allosteric modulator; format: cell-based; conditions: Ro 01-6128 100 nM to 3 mM, 30 min; FIGS. 15A, 15B
T1 construct: expressed in transfected cells; host or cells: HEK-293 cells, transient, electroporation
T1 sequence (Q13255 19-1194): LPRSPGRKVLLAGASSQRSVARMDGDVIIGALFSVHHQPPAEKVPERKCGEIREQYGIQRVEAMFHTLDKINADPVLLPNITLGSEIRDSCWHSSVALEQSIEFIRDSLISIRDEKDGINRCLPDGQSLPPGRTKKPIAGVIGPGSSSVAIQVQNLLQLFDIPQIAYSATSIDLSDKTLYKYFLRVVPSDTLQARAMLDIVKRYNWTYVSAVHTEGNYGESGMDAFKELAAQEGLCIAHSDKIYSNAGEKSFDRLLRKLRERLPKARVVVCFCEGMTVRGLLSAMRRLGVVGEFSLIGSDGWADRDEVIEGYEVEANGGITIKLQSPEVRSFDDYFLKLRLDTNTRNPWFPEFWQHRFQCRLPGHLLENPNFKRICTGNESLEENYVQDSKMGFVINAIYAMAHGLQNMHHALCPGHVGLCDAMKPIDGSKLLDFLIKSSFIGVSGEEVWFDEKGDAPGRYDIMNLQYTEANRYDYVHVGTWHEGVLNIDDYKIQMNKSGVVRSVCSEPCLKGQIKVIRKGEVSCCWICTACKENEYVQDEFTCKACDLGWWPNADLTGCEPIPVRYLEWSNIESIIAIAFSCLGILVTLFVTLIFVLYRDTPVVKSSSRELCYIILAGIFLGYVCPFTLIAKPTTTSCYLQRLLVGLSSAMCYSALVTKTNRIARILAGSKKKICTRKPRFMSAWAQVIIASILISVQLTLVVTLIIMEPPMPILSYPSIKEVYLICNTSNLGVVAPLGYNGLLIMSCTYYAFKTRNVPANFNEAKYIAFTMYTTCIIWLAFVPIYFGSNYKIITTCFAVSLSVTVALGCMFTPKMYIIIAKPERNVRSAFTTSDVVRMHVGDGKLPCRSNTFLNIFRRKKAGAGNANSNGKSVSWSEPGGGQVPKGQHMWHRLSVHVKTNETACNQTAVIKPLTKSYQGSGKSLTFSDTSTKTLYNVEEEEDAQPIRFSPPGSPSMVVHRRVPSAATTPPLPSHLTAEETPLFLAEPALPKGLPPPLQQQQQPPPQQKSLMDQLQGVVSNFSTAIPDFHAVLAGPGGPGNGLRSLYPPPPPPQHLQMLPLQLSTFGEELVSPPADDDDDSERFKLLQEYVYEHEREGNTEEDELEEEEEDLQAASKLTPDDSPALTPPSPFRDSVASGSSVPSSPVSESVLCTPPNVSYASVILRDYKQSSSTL
Experimental: Incubation is performed for 3 h at 37° C., 5% CO2, saturated with moisture, before changing the medium for 100 μl of DMEM containing glutamax (glutamine not degradable to glutamate) and free of serum. Incubation is performed overnight at 37° C. in an incubator containing 5% CO2, saturated with moisture.
This signal may be either the intensity ratio E665/E620, or the delta F.

mGlu5 receptor = test: IP1 assay (TR-FRET) on HEK-293 cells expressing the mGlu5 receptor, effect of an inverse agonist; format: cell-based; conditions: MPEP 5 nM to 100 μM, 1 hour; FIGS. 16A, 16B
Experimental: Incubation is performed for 1 hour at 37° C., 5% CO2.
When the constitutive activity of the mGluR5 receptor is blocked by the addition of MPEP, that will lead to a decrease in the production of intracellular IP1. […] This signal may be either the intensity ratio E665/E620 or the delta F.

[1] = test system: anti-IP1 antibody labeled with europium cryptate; test: HTRF test, specificity of the anti-IP1 antibodies (competition with IP1-CY5); format: binding; conditions: competition with IP1-CY5 conjugate; FIG. 12
Experimental: All the solutions are prepared in 100 mM HEPES buffer pH 7 containing 0.1% BSA and 0.4 M KF.NB. 50 μl of solution of competitors are distributed into the wells of a black bottom microtiter plate so as to obtain the following final concentrations: myo-inositol (10 nM to 1 mM), IP1 Sigma (1 nM to 1 mM), IP2 (1 nM to 100 μM), IP3 (1 nM to 100 μM), PiP2 (1 nM to 100 μM). 50 μl of a 10 nM solution of IP1-CY5 conjugate of Example 10, 50 μl of a solution containing 1.5 nM of an anti-IP1 antibody labeled beforehand with europium cryptate are then distributed in the order indicated. Two wells are also distributed in which the 50 μl of competitors are replaced with 50 μl of buffer so as to constitute blanks (negative controls). The mixture is incubated for 2 h at 4° C. and a time-resolved fluorescence measurement is performed (td=50 μs, tg=400 μs) at 620 nm and 665 nm on a Rubystar® apparatus (BMG Labtech). The ΔF values are calculated using the blank values as reference. The percentages of inhibition obtained with the various competitors are then calculated with the delta F values taking, as 100% value, the signal obtained in the presence of an excess of the IP1 competitor.

Molecule | decrease in the signal (optical density at 450 nm) caused by the competitor (anti-IP1 antibodies) | also measured
O[C@H]1[C@H](O)[C@@H](O)[C@H](O)[C@@H](O)[C@H]1O [myo-inositol] | does not cause a decrease in the signal even at concentrations of 1 mM | –
CCOC(=O)NC(=O)C(c1ccccc1)c1ccccc1 [PAM] | – | TR-FRET signal (E665/E620 ratio or delta F) as a function of PAM concentration (mGlu1 receptor): the signal will decrease as a function of the PAM concentration
Cc1cccc(C#Cc2ccccc2)n1 [MPEP, 2-methyl-6-(phenylethynyl)pyridine] | – | TR-FRET signal (E665/E620 ratio or delta F) as a function of inverse agonist concentration (mGlu5 receptor): the signal for the assay will increase as a function of the concentration of inverse agonist
phosphatidylinositol 4,5-biphosphate [PIP2] | not recognized by the antibody | –
O=P(O)(O)OC1[C@H](O)[C@H](O)C(O)[C@H](O)[C@H]1O (stereo partly drawn) [IP1] | induces a reduction in the signal for concentrations below the micromolar range; also recorded: only the use of IP1 as competitor makes it possible to measure inhibition of the signal | inhibition of the signal by the competitor (HTRF, delta F) [1]: only the use of IP1 as competitor makes it possible to measure inhibition of the signal
